Test results published in patent publication US12577235B2, “Crystalline form of CXCR2 antagonist and application thereof” (Shenzhen Optimum Biological Technology Co., Ltd, priority 2019, dated 2026).

Assays:
[1] = Crystalline form stability assay of crystalline form A - solvent water activity; type: physicochemical; settings: for Crystalline form (XRPD): 20° C., 4 days
Method: The solutions were centrifuged to give precipitates, and the precipitates were dried under vacuum at 50° C. and subjected to XRPD.

[2] = Stability assay of solid crystalline form A at high temperature, high humidity, high temperature and high humidity, and illumination; type: physicochemical; settings: for Stability and druggability (conclusion in words): solid state stress conditions
Method: The samples were placed in conditions of high temperature (60° C.), high humidity (92.5% humidity, 25° C.), high temperature and high humidity (60° C./75% humidity), and under illumination (including in the dark as control) for stability assay. For samples in a 60° C./75% thermostatic incubator and a 92.5% RH desiccator, the vials were sealed using films. On the films 5 small holes were provided to ensure that the sample was in sufficient contact with atmospheric air. For samples at 60° C., under illumination and in the dark, the vials were tightly capped (for the sample in the dark the vial was wrapped with tin foil). The samples were tested on day 10 for high humidity (92.5% humidity) condition, on days 5 and 10 for high temperature (60° C.) condition, on days 10 and 30 for high temperature and high humidity (60° C./75% humidity) condition, and on day 10 for illumination condition.

[3] = tested on: PPE-induced SD rat COPD model; experiment: Therapeutic effect on PPE-induced COPD model; type: in vivo, SD rats; settings: dose not stated (technical effects summary)
From the text: • To test the therapeutic effect of the compound on PPE-induced SD rat COPD model. Materials: • Animals: SD rats (male, 160-180 g, 6 weeks age) • Test compounds: porcine pancreatic elastase (Sigma, 0.068 U/μL); Danirixin, compound 1. • Grouping: 1) vehicle group • 2) COPD model group (porcine pancreatic elastase modeling group/solvent group) • 3) PPE+Danirixin (30 mpk) • 4) PPE+compound 1 (10 mpk) • 5) PPE+compound 1 (30 mpk) Procedures: • 1. Modeling: PPE was given retrolingually. • 2. Administration: an aqueous solution of 1% DMSO/20% PEG400/79% (HP-b-CD) was used as the vehicle, and the drugs were administrated intragastrically everyday at a volume of 2 mL/rat for 4 weeks. • 3. Endpoint: On day 29, pulmonary function test, sample collection, and inflammatory cell count in bronchoalveolar lavage fluid.
Bronchoalveolar lavage: The rats were sacrificed, and dissected at the neck. Trachea intubation was performed. 1 mL of cold […] at 4° C. was infused for 3 lavages, and the lavage fluids were combined. The combined lavage fluids were centrifuged at 1200 rpm/min for 5 min, and the supernatant was discarded. The cell suspension was collected;

[4] = high humidity (92.5% humidity, 25° C.), day 0
[5] = high humidity (92.5% humidity, 25° C.), day 10
[6] = high temperature (60° C.), day 0
[7] = high temperature (60° C.), day 5
[8] = high temperature (60° C.), day 10
[9] = in the dark for 10 days (control)

O=C(Nc1ccc(Cl)c(S(=O)(=O)[C@H]2CCCNC2)c1O)N[C@@H]1CCCc2cc(C(F)(F)F)oc21 [crystalline form A]
Stability of the crystalline form in solvents (in words) ([1]; methanol, ethanol, methanol/water, water): stable in the above solvents | Crystalline form (XRPD) ([1]; stirred in ethanol, 100 mg/mL): Crystalline form A | Crystalline form (XRPD) ([1]; stirred in methanol, 100 mg/mL): Crystalline form A | Crystalline form (XRPD) ([1]; stirred in methanol/water = 1/1.5, 100 mg/mL): Crystalline form A | Crystalline form (XRPD) ([1]; stirred in water, 100 mg/mL): Crystalline form A | Appearance ([2]; 60° C./75% humidity, day 0): White powder | Crystalline form ([2]; 60° C./75% humidity, day 0): Crystalline | Appearance ([2]; 60° C./75% humidity, day 10): White powder | Crystalline form ([2]; 60° C./75% humidity, day 10): Crystalline | Appearance ([2]; 60° C./75% humidity, day 30): White powder | Crystalline form ([2]; 60° C./75% humidity, day 30): Crystalline | Appearance [2, 4]: White powder | Crystalline form [2, 4]: Crystalline | Appearance [2, 5]: White powder | Crystalline form [2, 5]: Crystalline | Appearance [2, 6]: White powder | Crystalline form [2, 6]: Crystalline | Appearance [2, 7]: White powder | Crystalline form [2, 7]: Crystalline | Appearance [2, 8]: White powder | Crystalline form [2, 8]: Crystalline | Appearance [2, 9]: White | Crystalline form [2, 9]: Crystalline | Stability and druggability (conclusion in words) ([2]; listed as crystalline form A of compound 1): good stability and druggability | Stability and druggability (conclusion in words) ([2]; listed as crystalline form A of the compound 1): good stability and desirable druggability | Appearance ([2]; under illumination for 10 days): White | Crystalline form ([2]; under illumination for 10 days): Crystalline | Number of neutrophils [3]: significantly reduce the number of neutrophils | Pulmonary function [3]: significantly improve the pulmonary function
